Test results reported in patent publication US11083725B2 (priority 2014, dated 2021).

System: NHBE cells
Assay: Biolog metabolic array: substrate use by NHBE cells with or without CA09 infection
Format: cell-based, human
Conditions: for Substrate use, 590 nm absorbance normalized to zero hour, 1 hr: Biolog PMM2, 1 hr; for Substrate use, 590 nm absorbance normalized to zero hour, 5 hr: Biolog PMM2, 5 hr; for Substrate use, 590 nm absorbance normalized to zero hour, 7 hr: Biolog PMM2, 7 hr
[1] = Control (uninfected) NHBE cells
[2] = Virus (CA09-infected NHBE cells, MOI 1)
[3] = Virus: CA09-infected NHBE cells, MOI 1, Biolog PMM2
[4] = Virus (CA09-infected, MOI 1) NHBE cells

Structure (SMILES) | 590 nm absorbance normalized to zero hour (substrate use), 1 hr [1] | 590 nm absorbance normalized to zero hour (substrate use), 2 hr [1] | 590 nm absorbance normalized to zero hour (substrate use), 3 hr [1] | 590 nm absorbance normalized to zero hour (substrate use), 4 hr [1] | 590 nm absorbance normalized to zero hour (substrate use), 6 hr [1] | 590 nm absorbance normalized to zero hour (substrate use), 8 hr [1] | 590 nm absorbance normalized to zero hour (substrate use), 9 hr [1] | 590 nm absorbance normalized to zero hour (substrate use), 10 hr [1] | 590 nm absorbance normalized to zero hour (substrate use), 11 hr [1] | 590 nm absorbance normalized to zero hour (substrate use), 1 hr [3] | 590 nm absorbance normalized to zero hour (substrate use), 2 hr [3] | 590 nm absorbance normalized to zero hour (substrate use), 3 hr [3] | 590 nm absorbance normalized to zero hour (substrate use), 4 hr [3] | 590 nm absorbance normalized to zero hour (substrate use), 5 hr [3] | 590 nm absorbance normalized to zero hour (substrate use), 6 hr [3] | 590 nm absorbance normalized to zero hour (substrate use), 7 hr [3] | 590 nm absorbance normalized to zero hour (substrate use), 8 hr [3] | 590 nm absorbance normalized to zero hour (substrate use), 9 hr [3] | 590 nm absorbance normalized to zero hour (substrate use), 10 hr [3] | 590 nm absorbance normalized to zero hour (substrate use), 11 hr [3] | other results
Nc1ncnc2c1ncn2[C@@H]1O[C@H](CO)[C@@H](O)[C@H]1O [Adenosine] | 2.85 | 1.34 | 1.67 | 1.86 | 2.50 | 3.10 | 3.78 | 3.46 | 3.32 | 1.39 | 1.23 | 1.60 | 1.77 | 1.96 | 2.16 | 2.38 | 2.56 | 2.88 | 2.56 | 2.60 | Substrate use, 590 nm absorbance normalized to zero hour, 1 hr [1]: 2.85; Substrate use, 590 nm absorbance normalized to zero hour, 5 hr [1]: 2.21; Substrate use, 590 nm absorbance normalized to zero hour, 7 hr [1]: 2.97; 590 nm absorbance normalized to zero hour (substrate use), 1 hr [2]: 1.39; 590 nm absorbance normalized to zero hour (substrate use), 2 hr [2]: 1.23; 590 nm absorbance normalized to zero hour (substrate use), 3 hr [2]: 1.60; 590 nm absorbance normalized to zero hour (substrate use), 4 hr [2]: 1.77; 590 nm absorbance normalized to zero hour (substrate use), 5 hr [2]: 1.96; 590 nm absorbance normalized to zero hour (substrate use), 6 hr [2]: 2.16; 590 nm absorbance normalized to zero hour (substrate use), 7 hr [2]: 2.38; 590 nm absorbance normalized to zero hour (substrate use), 8 hr [2]: 2.56; 590 nm absorbance normalized to zero hour (substrate use), 9 hr [2]: 2.88; 590 nm absorbance normalized to zero hour (substrate use), 10 hr [2]: 2.56; 590 nm absorbance normalized to zero hour (substrate use), 11 hr [2]: 2.60
OC[C@@H](O)[C@@H](O)[C@@H](O)CO [Adonitol] | 0.57 | 0.78 | 0.93 | 0.98 | 1.35 | 1.40 | 1.55 | 1.43 | 1.46 | 0.21 | 0.26 | 0.29 | 0.31 | 0.34 | 0.36 | 0.38 | 0.39 | 0.42 | 0.44 | 0.43 | Substrate use, 590 nm absorbance normalized to zero hour, 1 hr [1]: 0.57; Substrate use, 590 nm absorbance normalized to zero hour, 5 hr [1]: 1.16; Substrate use, 590 nm absorbance normalized to zero hour, 7 hr [1]: 1.28; 590 nm absorbance normalized to zero hour (substrate use), 1 hr [2]: 0.21; 590 nm absorbance normalized to zero hour (substrate use), 2 hr [2]: 0.26; 590 nm absorbance normalized to zero hour (substrate use), 3 hr [2]: 0.29; 590 nm absorbance normalized to zero hour (substrate use), 4 hr [2]: 0.31; 590 nm absorbance normalized to zero hour (substrate use), 5 hr [2]: 0.34; 590 nm absorbance normalized to zero hour (substrate use), 6 hr [2]: 0.36; 590 nm absorbance normalized to zero hour (substrate use), 7 hr [2]: 0.38; 590 nm absorbance normalized to zero hour (substrate use), 8 hr [2]: 0.39; 590 nm absorbance normalized to zero hour (substrate use), 9 hr [2]: 0.42; 590 nm absorbance normalized to zero hour (substrate use), 10 hr [2]: 0.44; 590 nm absorbance normalized to zero hour (substrate use), 11 hr [2]: 0.43
O=C(O)CC(O)(CC(=O)O)C(=O)O [Citric Acid] | 1.40 | 1.41 | 1.16 | 1.15 | 1.07 | 1.05 | 1.05 | 1.05 | 1.04 | 1.54 | 1.94 | 2.21 | 2.31 | 2.64 | 2.74 | 2.85 | 2.95 | 3.10 | 2.94 | 2.81 | Substrate use, 590 nm absorbance normalized to zero hour, 1 hr [1]: 1.40; Substrate use, 590 nm absorbance normalized to zero hour, 5 hr [1]: 1.22; Substrate use, 590 nm absorbance normalized to zero hour, 7 hr [1]: 1.04; 590 nm absorbance normalized to zero hour (substrate use), 1 hr [4]: 1.54; 590 nm absorbance normalized to zero hour (substrate use), 2 hr [4]: 1.94; 590 nm absorbance normalized to zero hour (substrate use), 3 hr [4]: 2.21; 590 nm absorbance normalized to zero hour (substrate use), 4 hr [4]: 2.31; 590 nm absorbance normalized to zero hour (substrate use), 5 hr [4]: 2.64; 590 nm absorbance normalized to zero hour (substrate use), 6 hr [4]: 2.74; 590 nm absorbance normalized to zero hour (substrate use), 7 hr [4]: 2.85; 590 nm absorbance normalized to zero hour (substrate use), 8 hr [4]: 2.95; 590 nm absorbance normalized to zero hour (substrate use), 9 hr [4]: 3.10; 590 nm absorbance normalized to zero hour (substrate use), 10 hr [4]: 2.94; 590 nm absorbance normalized to zero hour (substrate use), 11 hr [4]: 2.81
O=C[C@H](O)[C@@H](O)[C@H](O)[C@H](O)CO [D-(+)-Glucose] | – | – | – | – | – | – | – | – | – | 0.82 | 1.44 | 1.76 | 1.96 | 2.64 | 2.91 | 3.23 | 3.59 | 4.21 | 4.43 | 5.05 | –
O=C[C@@H](O)[C@H](O)[C@H](O)CO [D-Arabinose] | 1.59 | 1.50 | 0.77 | 1.35 | 0.39 | 1.00 | 1.14 | 0.96 | 1.35 | 0.65 | 0.90 | 1.03 | 1.07 | 1.22 | 1.29 | 1.37 | 1.33 | 1.34 | 1.38 | 1.58 | Substrate use, 590 nm absorbance normalized to zero hour, 1 hr [1]: 1.59; Substrate use, 590 nm absorbance normalized to zero hour, 5 hr [1]: 0.99; Substrate use, 590 nm absorbance normalized to zero hour, 7 hr [1]: 1.04; 590 nm absorbance normalized to zero hour (substrate use), 1 hr [4]: 0.65; 590 nm absorbance normalized to zero hour (substrate use), 2 hr [4]: 0.90; 590 nm absorbance normalized to zero hour (substrate use), 3 hr [4]: 1.03; 590 nm absorbance normalized to zero hour (substrate use), 4 hr [4]: 1.07; 590 nm absorbance normalized to zero hour (substrate use), 5 hr [4]: 1.22; 590 nm absorbance normalized to zero hour (substrate use), 6 hr [4]: 1.29; 590 nm absorbance normalized to zero hour (substrate use), 7 hr [4]: 1.37; 590 nm absorbance normalized to zero hour (substrate use), 8 hr [4]: 1.33; 590 nm absorbance normalized to zero hour (substrate use), 9 hr [4]: 1.34; 590 nm absorbance normalized to zero hour (substrate use), 10 hr [4]: 1.38; 590 nm absorbance normalized to zero hour (substrate use), 11 hr [4]: 1.58
